Experimental data: article PMC5779714, “Metallochaperone UreG serves as a new target for design of urease inhibitor: A novel strategy for development of antimicrobials” (PLoS Biology, 2018)
Several values for one entry are separate records, joined by “and”; a condition that tells them apart may be missing. Equal values may be shown once.

Legend:
UreG [1] = target: T1, UreG (Helicobacter pylori, UniProt Q09066); assay: Fluorescence-quenching titration of UreG (Kd); type: binding, H. pylori
Procedure: (§1) Using the relation between the emission intensity at 310 nm and molecule-UreG–bound species, as well as one site-binding model, the Kd values were calculated by a logistic regression model referring to a previous report. […] All fluorescence readings were corrected for the dilution effect.

UreGΔNKXD = UreGΔNKXD (Helicobacter pylori, UniProt Q09066, D148A/K146A/N145A); assay: Fluorescence-quenching titration of mutant UreGΔNKXD; type: binding, H. pylori
Procedure: To further confirm the interface between UreG and small molecules generated from computational models, we then constructed an UreG mutant (UreGΔNKXD) by replacing selected residues (N145, K146, D148) with Ala to disrupt G4 motif, which abolished GTP binding of UreG (S17 Fig).
as §1

[2] = tested on: AGS cells exposed to H. pylori; assay: Cell infection model: AGS cells exposed to H. pylori pre-cultured with inhibitors; type: cell-based, human
UreG [3] = target: T1, UreG; assay: Nickel binding of UreG (UV absorption at 337 nm) in presence of compounds; design: species or system H. pylori
Procedure: We further investigated whether binding of cmpd4 or cmpd8 to the guanine nucleotide binding pocket perturbed the Ni(II) coordination to the protein. Considering that coordination of Ni(II) to UreG results in a (Cys)→Ni(II) LMCT band centered at about 337 nm, we monitored the UV absorption of UreG samples (5 μM) at 337 nm upon titration of nickel with or without the supplement of cmpd4 or cmpd8. As shown in S19 Fig, cmpd4 at a ratio of [cmpd4]/[UreG] of 5 and 10 reduced the percentages of Ni(II)-bound UreG to ca. 75% and 30%, respectively, and a similar phenomenon was also observed for cmpd8 (S19 Fig), indicative of the disruption of nickel binding property of UreG through targeting nucleotide binding site.
Supplementary file pbio.2003887.s021.png: S19 Fig Effect of cmpd4 and cmpd8 on nickel binding property of UreG. UreG (5 μM) in HEPES buffer (5 μM GTP, 1 mM MgSO4) was titrated with NiSO4 in the presence of cmpd4 or cmpd8 at various concentrations. Titration of nickel ion into UreG samples led to the increasing of absorption at 337 nm, the highest of which was set as 100% for the percentage of Ni-bound UreG. The supplement of cmpd4 and cmpd8 reduced the percentage of Ni-bound UreG. […] (PNG) Click here for additional data file.

H. pylori = assay: Growth of H. pylori in neutral and acidic brucella broth (OD600); type: cell-based
UreG [4] = target: T1, UreG; assay: biochemical; type: biochemical, H. pylori
Procedure: A Malachite Green Phosphate Assay Kit (Abcam) was utilized to quantify the hydrolysis of GTP by UreG under various conditions. […] GTPase activity of UreG was triggered through the addition of 10 mM KHCO3, after which the reaction was incubated at 37°C for 30 min; then, the free phosphate from hydrolysis of GTP was determined. […] To eliminate the potential effect of small compounds on malachite green assay, the assay included a subtraction of the absorbance of reaction with the same amounts of compounds but without UreG enzyme for each reading.

[5] = tested on: AGS cells with H. pylori infection; assay: AGS cells with H. pylori infection, inhibitors administrated to the AGS cells (S20 Fig); type: cell-based, human; conditions: 10 μM administrated to AGS cells with H. pylori infection
Source text: As expected, low viability of AGS with the supplement of cmpd4 and cmpd8 was observed due to the toxicity of small compounds to mammalian cells. […] (PNG) Click here for additional data file.

UreGΔNKXD, sequence (Q09066 whole entry N145A/K146A/D148A): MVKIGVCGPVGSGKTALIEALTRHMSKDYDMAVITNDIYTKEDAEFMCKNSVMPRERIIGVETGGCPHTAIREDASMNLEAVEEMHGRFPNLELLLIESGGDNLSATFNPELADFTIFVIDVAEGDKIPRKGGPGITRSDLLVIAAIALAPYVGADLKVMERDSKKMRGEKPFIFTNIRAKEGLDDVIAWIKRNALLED
T1 sequence (Q09066 whole entry): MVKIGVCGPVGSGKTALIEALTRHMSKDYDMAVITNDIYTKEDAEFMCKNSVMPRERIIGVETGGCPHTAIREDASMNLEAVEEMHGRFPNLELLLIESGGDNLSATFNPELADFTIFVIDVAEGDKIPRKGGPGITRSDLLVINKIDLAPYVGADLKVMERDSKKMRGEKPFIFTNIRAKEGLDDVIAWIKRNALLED

SMILES: O=C(Cn1c2ccccc2c(=O)c2ccccc21)N/N=C/c1cc([N+](=O)[O-])ccc1N1CCCCCC1 [cmpd8]
- Kd (UreG [1]): 7.5 ± 3.6 µM
- fluorescence intensity (a.u.) (UreG [1]; log(ligand[μM]) 0): 2868.33 a.u.
- fluorescence intensity (a.u.) (UreG [1]; log(ligand[μM]) 0.30103): 2606 a.u.
- fluorescence intensity (a.u.) (UreG [1]; log(ligand[μM]) 0.60206): 2272 a.u.
- fluorescence intensity (a.u.) (UreG [1]; log(ligand[μM]) 0.90309): 1853.67 a.u.
- fluorescence intensity (a.u.) (UreG [1]; log(ligand[μM]) 1.20412): 1359.33 a.u.
- fluorescence intensity (a.u.) (UreG [1]; log(ligand[μM]) 1.50515): 767.233 a.u.
- fluorescence intensity (a.u.) (UreG [1]; log(ligand[μM]) 1.68124): 595.5 a.u.
- fluorescence intensity (a.u.) (UreG [1]; log(ligand[μM]) 1.80618): 360.267 a.u.
- fluorescence intensity (a.u.) (UreG [1]; log(ligand[μM]) -0.30103): 3140.33 a.u.
- fluorescence intensity (a.u.) (UreG [1]; log(ligand[μM]) -0.60206): 3427 a.u.
- fluorescence intensity (a.u.) (UreG [1]; log(ligand[μM]) -1.30103): 3670 a.u.
- Kd (UreGΔNKXD): 33.4 µM
- fluorescence intensity (a.u.) (UreGΔNKXD; log(ligand[μM]) 0): 2422.67 a.u.
- fluorescence intensity (a.u.) (UreGΔNKXD; log(ligand[μM]) 0.30103): 2357.67 a.u.
- fluorescence intensity (a.u.) (UreGΔNKXD; log(ligand[μM]) 0.60206): 2253.67 a.u.
- fluorescence intensity (a.u.) (UreGΔNKXD; log(ligand[μM]) 0.90309): 2017.33 a.u.
- fluorescence intensity (a.u.) (UreGΔNKXD; log(ligand[μM]) 1.20412): 1677.67 a.u.
- fluorescence intensity (a.u.) (UreGΔNKXD; log(ligand[μM]) 1.50515): 1189.33 a.u.
- fluorescence intensity (a.u.) (UreGΔNKXD; log(ligand[μM]) 1.80618): 685.167 a.u.
- fluorescence intensity (a.u.) (UreGΔNKXD; log(ligand[μM]) 2.10721): 316.133 a.u.
- fluorescence intensity (a.u.) (UreGΔNKXD; log(ligand[μM]) -0.30103): 2519 a.u.
- fluorescence intensity (a.u.) (UreGΔNKXD; log(ligand[μM]) -1.30103): 2677 a.u.
- Normalized cell survival (%) [2]: 81.1% ± 11.3% and 81.0811%
- Ammonia in medium (mM) ([2]; H. pylori pre-cultured with 10 μM inhibitor, urea 10 mM, 24 h, Hp alone ca. 2.5 mM): around 1.1 mM
- Ammonia in medium ([2]; H. pylori pre-cultured with 10 μM inhibitor, urea 10 mM, 24 h, Hp alone ca. 2.5 mM, listed as cmp8): 1.209 mM
- absorption at 337 nm (UreG [3]; [compound]/[UreG] 5, Ni 0 μM): 2.14E-04
- absorption at 337 nm (UreG [3]; [compound]/[UreG] 5, Ni 1 μM): 0.00481
- absorption at 337 nm (UreG [3]; [compound]/[UreG] 5, Ni 2 μM): 0.0064
- absorption at 337 nm (UreG [3]; [compound]/[UreG] 5, Ni 3 μM): 0.00838
- absorption at 337 nm (UreG [3]; [compound]/[UreG] 5, Ni 4 μM): 0.01641
- absorption at 337 nm (UreG [3]; [compound]/[UreG] 5, Ni 5 μM): 0.0186
- absorption at 337 nm (UreG [3]; [compound]/[UreG] 5, Ni 6 μM): 0.01908
- absorption at 337 nm (UreG [3]; [compound]/[UreG] 5, Ni 7 μM): 0.02094
- absorption at 337 nm (UreG [3]; [compound]/[UreG] 5, Ni 8 μM): 0.0213
- absorption at 337 nm (UreG [3]; [compound]/[UreG] 10, Ni 0 μM): 0.00131
- absorption at 337 nm (UreG [3]; [compound]/[UreG] 10, Ni 1 μM): 0.00222
- absorption at 337 nm (UreG [3]; [compound]/[UreG] 10, Ni 2 μM): 0.00217
- absorption at 337 nm (UreG [3]; [compound]/[UreG] 10, Ni 3 μM): 0.00973
- absorption at 337 nm (UreG [3]; [compound]/[UreG] 10, Ni 4 μM): 0.01047
- absorption at 337 nm (UreG [3]; [compound]/[UreG] 10, Ni 5 μM): 0.01403
- absorption at 337 nm (UreG [3]; [compound]/[UreG] 10, Ni 6 μM): 0.0146
- absorption at 337 nm (UreG [3]; [compound]/[UreG] 10, Ni 7 μM): 0.01179
- absorption at 337 nm (UreG [3]; [compound]/[UreG] 10, Ni 8 μM): 0.01166
- OD600(pH5) (H. pylori; pH 5): 0.47
- OD600 (pH7) (H. pylori; pH 7): 0.116
- IC50 (UreG [4]): 13.2 ± 7.6 µM
- Normalized GTPase activity(%) (UreG [4]; log[μM] 0): 100.3%
- Normalized GTPase activity(%) (UreG [4]; log[μM] 0.60206): 93.8%
- Normalized GTPase activity(%) (UreG [4]; log[μM] 0.90309): 81.8%
- Normalized GTPase activity(%) (UreG [4]; log[μM] 1.20412): 41.6%
- Normalized GTPase activity(%) (UreG [4]; log[μM] 1.50515): 32.9%
- Normalized GTPase activity(%) (UreG [4]; log[μM] 1.79588): 13.8%
- Normalized GTPase activity(%) (UreG [4]; log[μM] 2.09691): 2.1%
- Normalized GTPase activity(%) (UreG [4]; log[μM] 2.39794): 16.7%
- inhibition at 20 µM (UreG [4]; read-out: inhibition of the GTPase activity of UreG): 37 to 72%
- Ammonia in medium [5]: 0.5294 mM
- Normalized cell survival (%) [5]: low viability
- Normalized cell survival (%) ([5]; listed as cmp8): 23.4234%
